From patent US20250339402A1, “EFFECTIVE MEANS TO MODULATE NMDA RECEPTOR-MEDIATED TOXICITY” (FUNDAMENTAL PHARMA GMBH, priority 2022, published 2025)
“Also recorded” adds a separate entry of the source. Counter-ions that a name gives are not always drawn.

Experiments:
[1] = tested on: Primary mouse hippocampal neurons; assay: Excitotoxic (glutamate/NMDA-induced) cell death in primary neuronal cultures, protection index; type: cell-based; details: for IC50: Mus musculus, Hippocampal neuron, excitotoxic cell death in primary neuronal cultures
Method: (§1) Primary mouse hippocampal neurons were prepared as previously described (Bading & Greenberg, Science, 1991; 253: 912-914; Zhang et al, Neuron, 2007, 53: 549-562) and maintained in Neurobasal-A medium supplemented with 2% B27, 5 mM L-Glutamax, and 0.5% Penicillin/Streptomycin until challenged with NMDA on days in vitro (DIV) 10. Glutamate-induced cell death was analyzed in a real-time manner by monitoring nuclear localized mCherry with IncuCyte® S3 Live-Cell Analysis System (Sartorius AG, Germany). Primary neurons plated in 24 well plates were infected with rAAV-hSyn-mCherry on DIV3 and challenged with 1 μM or 20 μM glutamate on DIV10. All compounds were added to the culture 30 min prior to glutamate/NMDA insult. Images were acquired following the glutamate application for 24 h with a 2 h interval, where 9-16 images were obtained via a 20×objective for each condition at each time point. Cell deaths were quantified by analyzing the existence of nuclear localized mCheery via the Basic Analyzer with Incucyte® 2021 software, size and average intensity were used as exclusion criteria.
In order to evaluate the protective effects of various compounds, a quantification method was developed to determine each compound's protection index. The protection index (from 0.0 to 10.0) was calculated by the area above the curve (AAC) during a 24 h excitotoxic stimuli, where the cell survival was normalized to the 0 h (FIG. 2), following the equation: […]
Where AAC represents for each compound, AACbasal represents for the basal condition without excitotoxic insult, AACVeh represents for the vehicle control with excitotoxic insult. Based on the equation, vehicle (DMSO) has a protection index at 0.0 and compound P401 of WO 2020/079244 has a protection index at 6.0 (at 10 μM).
The inventors also performed experiments with Group A compounds at lower concentration in a 3-fold dilution matter ([…]: 3.0, 1.0, 0.3, 0.1, 0.03) and were able to achieve a similar protection effect as 10 μM compound P401, but at a lower concentration.

NMDAR/TRPM4 complex = target: T1, NMDAR/TRPM4 complex (Homo sapiens, UniProt Q8TD43); assay: Co-immunoprecipitation of TRPM4 and NMDA receptor subunits, Western blot; type: cell-based; details: 10 μM for 30 min; lysates of human iPSC-derived brain organoids precipitated with anti-TRPM4; FIG. 5; hydrochloride
T1 construct: endogenous in cells; host or cells: human iPSC-derived brain organoids, week 25
Method: All procedures for co-immunoprecipitation were carried out at 4° C. Human iPSC derived brain organoids were cultured in Falcon@6 well TC-treated cell culture plate to week 25 as described (Bauersachs H G et al, Neuroscience, 2022; 484:83-97), which allows an abundant expression of both GluN2A/GluN2B/TRPM4 expression. 6 brain organoids were incubated with 10 μM compound 120 for 30 min, washed twice with ice-cold PBS and then lysed in 500 μL immunoprecipitation buffer (10 mM Tris, pH 8.0, 150 mM NaCl, 1 mM EDTA, 1% NP-40, 10% glycerol with EDTA-free Protease Inhibitor Cocktail (Roche). The lysate was incubated while rotating for 60 min, centrifuged for 12 min at 1,200×g to remove cell debris and nuclei. 10% of the supernatant was boiled with Laemmli buffer for input samples analysis. The rest of the supernatant was mixed with anti-TRPM4 antibody (1:200) overnight. The mixture was then incubated with Pierce™ Protein A Magnetic Beads for another 12 h to pull down antibody complex, and washed with immunoprecipitation buffer to remove any unspecific bindings. After the last washing, the supernatant was carefully removed, and the precipitate pellets were boiled in Laemmli buffer. Both input and precipitate samples were stored at −20° C. until analysed with western blots. […]

[2] = tested on: human iPSC-derived prefrontal cortex organoids; assay: Cell survival after glutamate/NMDA treatment in prefrontal cortex organoids (RealTime-Glo MT Cell Viability Assay); type: cell-based; details: pre-incubation 30 min, 200 μM NMDA for 24 h; compared with P401; FIG. 4; hydrochloride
Method: Prefrontal cortex organoids were generated based on published literature (Bauersachs H G et al, Neuroscience, 2022; 484:83-97). Around week 20, organoids were pre-incubated with compound 120 for 30 min before challenged with 200 μM NMDA for 24 h, where 80% of neuron will undergo necrosis. The cell death was monitored and analyzed with a RealTime-Glo™ MT Cell Viability Assay (Promega, G9711) following the manufacture's instruction using a plate reader (luciferase). The cell survival (%) can be calculated by the following equation: […]
Where Ft is the luciferase intensity at each time point and Fbasal is the basal luciferase intensity before glutamate/NMDA insult to diminish the difference between different organoids. The Control and FControlBasal stands for the same in untreated organoids, therefore the cell death can be calculated by normalization to the healthy organoids.

Primary neurons = assay: Reactive oxygen species (H2O2) induced neuronal death in primary neurons; type: cell-based, mouse; details: 300 μM H2O2 on DIV10, compounds added 30 min before, FIG. 3
Method: as §1, with “Images were acquired following the glutamate application for 24 h with a 2 h interval, where 9-16 images were obtained via a 20×objective for each condition at each time point.” left out
Primary neurons plated in 24 well plates were infected with rAAV-hSyn-mCherry on DIV3 and challenged with 300 μM H2O2 on DIV10. […] Cell deaths were quantified by analyzing the existence of nuclear localized mCherry via the Basic Analyzer with Incucyte® 2021 software, size and average intensity were used as exclusion criteria.

[3] = first subset, protection index from area above curve over 24 h glutamate/NMDA insult, compounds added 30 min before, 10 μM, Group A also at lower concentrations
[4] = second subset, protection index from area above curve over 24 h glutamate/NMDA insult, compounds added 30 min before, 10 μM, Group A also at lower concentrations
[5] = third subset, A++++ or above correlates with IC50, A++ and A+++ as defined in the source

T1 sequence (Q8TD43 whole entry, one chain of several): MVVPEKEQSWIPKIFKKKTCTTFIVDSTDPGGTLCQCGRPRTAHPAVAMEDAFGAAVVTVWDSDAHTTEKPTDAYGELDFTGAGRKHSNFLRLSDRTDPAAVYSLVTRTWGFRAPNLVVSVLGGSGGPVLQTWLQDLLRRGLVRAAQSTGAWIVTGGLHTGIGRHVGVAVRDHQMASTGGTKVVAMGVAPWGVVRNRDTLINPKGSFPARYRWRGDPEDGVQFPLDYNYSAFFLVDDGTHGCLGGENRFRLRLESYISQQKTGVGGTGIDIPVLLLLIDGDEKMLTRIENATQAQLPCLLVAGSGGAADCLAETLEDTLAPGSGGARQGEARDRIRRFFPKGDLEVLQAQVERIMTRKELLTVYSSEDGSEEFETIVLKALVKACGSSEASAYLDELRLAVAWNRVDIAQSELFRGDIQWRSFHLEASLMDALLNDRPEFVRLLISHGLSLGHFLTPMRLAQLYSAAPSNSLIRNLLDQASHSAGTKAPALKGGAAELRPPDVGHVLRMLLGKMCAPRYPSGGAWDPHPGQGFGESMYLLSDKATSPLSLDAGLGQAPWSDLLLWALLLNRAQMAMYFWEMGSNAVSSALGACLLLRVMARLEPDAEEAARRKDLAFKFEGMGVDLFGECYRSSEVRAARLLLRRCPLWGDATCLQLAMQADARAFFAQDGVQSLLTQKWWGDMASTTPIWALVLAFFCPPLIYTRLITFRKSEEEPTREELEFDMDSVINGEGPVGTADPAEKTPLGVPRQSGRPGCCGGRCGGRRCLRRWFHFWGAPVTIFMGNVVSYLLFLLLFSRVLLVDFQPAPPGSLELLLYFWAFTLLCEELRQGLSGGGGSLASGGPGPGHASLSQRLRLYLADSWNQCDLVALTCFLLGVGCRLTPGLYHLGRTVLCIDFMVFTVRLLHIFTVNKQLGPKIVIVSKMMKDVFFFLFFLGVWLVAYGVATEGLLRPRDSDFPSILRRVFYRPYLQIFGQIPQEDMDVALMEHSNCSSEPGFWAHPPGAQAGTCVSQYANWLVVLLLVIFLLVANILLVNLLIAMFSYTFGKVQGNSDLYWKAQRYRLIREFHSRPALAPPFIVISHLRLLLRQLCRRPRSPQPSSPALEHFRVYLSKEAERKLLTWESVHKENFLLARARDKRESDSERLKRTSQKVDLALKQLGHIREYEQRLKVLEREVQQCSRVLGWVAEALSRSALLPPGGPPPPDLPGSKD

NCCN(Cc1cccc(Cl)c1F)C1CC1 [Compound 120, N1-(3-chloro-2-fluorobenzyl)-N1-cyclopropylethane-1,2-diamine hydrochloride]
Biological Activity Rating [1, 3]: A+++ (With a protection index between 5.0 to 7.0, provides a comparable protection to compound P401 (10 μM) at 0.3 μM.)
disruption of NMDAR/TRPM4 complex (NMDAR/TRPM4 complex): the NMDAR/TRPM4 complex was disrupted; also recorded: disrupts the NMDAR/TRPM4 complex
cell survival (%) after glutamate/NMDA treatment [2]: superior protection over compound P401; also recorded: improves cell survival after glutamate/NMDA treatment

CCN(CCN)Cc1cccc(Cl)c1 [Compound P401, (2-aminoethyl)[(3-chlorophenyl)methyl]ethylamine, reference compound]
protection (cell survival after glutamate/NMDA treatment) ([1]; 10 μM, primary cultured neurons, FIG. 2): ~60%
protection index ([1]; at 10 μM, scale 0.0 to 10.0, vehicle (DMSO) = 0.0): 6.0
protection against H2O2 insult (cell survival) (Primary neurons): better protection against H2O2 insult compared to FDA-approved ALS drug Riluzole and Edaravone; also recorded: better protection against H2O2 insult than the FDA-approved ALS drug Riluzole and Edaravone

C=CCC(=O)N(CCN)Cc1cccc(Cl)c1 [Compound 137, N-(2-aminoethyl)-N-[(3-chlorophenyl)methyl]but-3-enamide hydrochloride]
Biological Activity Rating [1, 3]: A (With a protection index over 7.0, provides a significantly better protection over compound P401 (10 μM) at 10 μM.)

CC(c1cccc(Cl)c1F)N(CCN)C1CCC1 (centres unmarked) [Compound 180, N1-(cyclobutyl)-N1-(1-(3-chloro-2-fluorophen, l)ethyl)ethane-1,2-diamine hydrochloride]
Biological Activity Rating [1, 4]: A++ (With a protection index between 5.0 to 7.0, provides a comparable protection to compound P401 (10 μM) at 1.0 μM.)

CC(C)(F)C(c1cccc(C#N)c1F)N(CCN)C1CC1 (centres unmarked) [Compound 287, 3-[1-[2-aminoethyl(cyclopropyl)amino]-2-fluoro-2-methyl-propyl]-2-fluoro-benzonitrile TFA salt]
IC50 ([1]; third subset): 3 nM

CC(c1c(F)ccc(Cl)c1F)N(CCN)C1CC1.Cl (centres unmarked) [Compound 187]
IC50 ([1]; third subset): 2000 nM
Biological Activity Rating [1, 5]: A++

NCCN(C1CC1)C(c1cccc(Cl)c1F)C1CC1 (centres unmarked) [Compound 190]
IC50 ([1]; third subset): 110 nM

CC(c1cccc(Cl)c1F)N(CCN)C1CC1 (centres unmarked) [Compound 220, N1-(1-(3-chloro-2-fluorophenyl)ethyl)-N1-cyclopropylethane-1,2-diamine hydrochloride]
Biological Activity Rating ([1]; second subset, protection index from area above curve over 24 h glutamate/NMDA insult, compounds added 30 min before, 10 μM, Group A also at lower concentrations, hydrochloride): A++++ (With a protection index between 5.0 to 7.0, provides a comparable protection to compound P401 (10 μM) at 0.1 μM.)
protection against H2O2 insult (cell survival) (Primary neurons; hydrochloride): better protection against H2O2 insult compared to P401 at 10 μM; also recorded: even better protection than the prior art compound P401

CCN(CCN)[C@H](C)c1cccc(Cl)c1 [Compound 176, (R)—N1-(1-(3-chlorophenyl)ethyl)-N1-ethylethane-1,2-diamine dihydrochloride]
Biological Activity Rating [1, 4]: A (With a protection index over 7.0, provides a significantly better protection over compound P401 (10 μM) at 10 μM.)

CC(c1cc(Cl)ccc1F)N(CCN)C1CC1 (centres unmarked) [Compound 243]
IC50 ([1]; third subset): 300 nM
Biological Activity Rating [1, 5]: A+++

CC(c1cc(Cl)ccc1Cl)N(CCN)C1CC1 (centres unmarked) [Compound 185, N1-(cyclopropyl)-N1-(1-(2,5-dichlorophenyl)ethyl)ethane-1,2-diamine hydrochloride]
Biological Activity Rating [1, 4]: A++ (With a protection index between 5.0 to 7.0, provides a comparable protection to compound P401 (10 μM) at 1.0 μM.)

CC(C)C(c1cccc(Br)c1F)N(CCN)C1CC1 (centres unmarked) [Compound 294, N′-[1-(3-bromo-2-fluoro-phenyl)-2-methyl-propyl]-N′-cyclopropyl-ethane-1,2-diamine TFA salt]
IC50 ([1]; third subset): 10 nM

CCN(CCN)Cc1cc(F)cc(Cl)c1 [Compound 94]
Biological Activity Rating [1, 3]: B (With a protection index between 5.0 to 7.0, provides a comparable protection to compound P401 (10 μM) at 10 μM.)
